In patent publication US20230241031A1, “Composition, Comprising Rip Kinase Inhibitor, For Preventing Hair Loss Or Promoting Hair Regrowth” (Epi Biotech Co., Ltd., priority 2019, published 2023):

Legend:
mouse vibrissae = assay: Hair growth induction in organ-cultured mouse vibrissae; assay type: cell-based, mouse (C57BL/6 female mice); conditions: vibrissae cultured 3 days at 37° C.; for degree of hair growth induction (efficacy of promoting hair growth): vs untreated group; for degree of hair growth induction: siRNA treatment, vs control siRNA, FIG. 6; for degree of hair growth induction (effect of promoting hair growth): compared to inactive type necrostatin-1, FIG. 1
Method: Specifically, the vibrissae of C57BL/6 female mice were trimmed and organ cultured. […] The vibrissae of the three treatment groups were treated with 10 μM, respectively, and then cultured for 3 days in an incubator at 37° C.
Specifically, the vibrissae of C57BL/6 female mice were trimmed and organ cultured. The trimmed vibrissae were cultured in a 48-well plate so as to become one per well, and divided into a total of 3 groups: the untreated group (control group), the group treated with 1 μM sibiriline, and the group treated with 10 μM sibiriline. The vibrissae were treated, respectively, and then cultured for 3 days in an incubator at 37° C.
Specifically, the vibrissae of C57BL/6 female mice were trimmed and organ cultured. The trimmed vibrissae were cultured in a 48-well plate so as to become one per well, and divided into a total of 3 groups: the untreated group (control group), the group treated with 1 μM GSK963, and the group treated with 10 μM GSK963. The vibrissae were treated, respectively, and then cultured for 3 days in an incubator at 37° C.
Specifically, the vibrissae of C57/BL6 female mice were trimmed and organ cultured. The trimmed vibrissae were cultured in a 48-well plate so as to become one per well, and divided into a total of 4 groups: the untreated group (control group), the group treated with 1 μM GSK2982772, the group treated with 10 μM GSK2982772, and the group treated with 50 μM GSK2982772. The vibrissae were treated, respectively, and then cultured for 3 days in an incubator at 37° C.
Specifically, the vibrissae of C57BL/6 female mice were trimmed and organ cultured. The trimmed vibrissae were cultured in a 48-well plate so as to become one per well, and divided into a total of 3 groups: the group treated with RIPK1 siRNA, the group treated with RIPK3 siRNA, and the group treated with control siRNA (control group) in Table 1. The vibrissae were treated, respectively, and then cultured for 3 days in an incubator at 37° C.

C3H/HeN mice = assay: Hair regrowth on the back of depilated mice after topical application; assay type: in vivo, mouse (C3H/HeN, male); conditions: 100 μl applied to the back, 13 days, FIG. 2
Text: The hairs of ten 6-week-old male C3H/HeN mice were shaved short using a depilatory machine, and the remaining hairs were completely removed using a depilatory agent, and then they were stabilized for one day before use in the experiment.
Mice were divided into 5 mice per group under the following conditions to conduct an experiment.
After 13 days, the hairs on the back of the mouse in which hair regrowth occurred were shaved using a razor, and then the hairs were obtained, and the weight was measured.

`CN1C(=O)[C@@H](NC(=O)c2nnc(Cc3ccccc3)[nH]2)COc2ccccc21` [GSK2982772] was tested, and the “degree of hair growth induction (efficacy of promoting hair growth)” value (from here on “degree … (efficacy of promoting hair growth)”) (mouse vibrissae; 1 μM) was “excellent efficacy of promoting hair growth”, the “degree … (efficacy of promoting hair growth)” value (mouse vibrissae; 10 μM) was “excellent efficacy of promoting hair growth” and the “degree … (efficacy of promoting hair growth)” value (mouse vibrissae; 50 μM) was “excellent efficacy of promoting hair growth”.
“RIPK1 siRNA: siRNA of SEQ ID NO: 1 and 2 capable of inhibiting RIP kinase expression (chain 1 GUCCUUGUGUUACCACAGA; chain 2 UCUGUGGUAACACAAGGAC; listed as RNA, chemistry not given here)” was tested, and the “degree of hair growth induction” value (mouse vibrissae) was “hair growth was promoted”.
`Oc1ccc(-c2cc3cccnc3[nH]2)cc1` [sibiriline] was tested, and the “degree … (efficacy of promoting hair growth)” value (mouse vibrissae; 1 μM) was “excellent efficacy of promoting hair growth” and the “degree … (efficacy of promoting hair growth)” value (mouse vibrissae; 10 μM) was “excellent efficacy of promoting hair growth”.
In the case of “RIPK3 siRNA: siRNA of SEQ ID NO: 3 and 4 capable of inhibiting RIP kinase expression (chain 1 CGAGUGAUGUCUACAGCUU; chain 2 AAGCUGUAGACAUCACUCG; listed as RNA, chemistry not given here)”, the “degree of hair growth induction” value (mouse vibrissae) is reported as “hair growth was promoted”.
With `CN1C(=O)NC(Cc2c[nH]c3c(Cl)cccc23)C1=O` (stereo not shown) [necrostatin-1s] the “degree of hair growth induction (effect of promoting hair growth)” value (mouse vibrissae; 10 μM) was “excellent effect of promoting hair growth compared to the inactive type necrostatin-1”, the “effect of inducing hair growth (appearance of hair growth and weight of the hair)” value (C3H/HeN mice; 100 μM, vs 2% minoxidil group) was “more excellent effect of inducing hair growth compared to the group administered with commercially available minoxidil” and the “hair growth effect (appearance of hair growth and weight of the hair)” value (C3H/HeN mice; group administered with necrostatin-1s (10 μM or 100 μM), vs untreated control group) was “excellent hair growth effect compared to the untreated control group”.
In the case of `CC(C)(C)C(=O)N1N=CCC1c1ccccc1` (stereo not shown) [GSK963], the “degree … (efficacy of promoting hair growth)” value (mouse vibrissae; 1 μM) is reported as “excellent efficacy of promoting hair growth” and the “degree … (efficacy of promoting hair growth)” value (mouse vibrissae; 10 μM) is reported as “excellent efficacy of promoting hair growth”.
`CN1C(=O)C(Cc2c[nH]c3ccccc23)NC1=S` (stereo not shown) [necrostatin-1] was tested, and the “degree of hair growth induction (effect of promoting hair growth)” value (mouse vibrissae; 10 μM) was “excellent effect of promoting hair growth compared to the inactive type necrostatin-1”.
